Measured values published in patent US12435294B2, “Prevention of the oxidation of perfumery raw materials and food raw materials” (Firmenich SA, priority 2018, dated 2025).
Values joined by “and” are separate entries in the source; they are usually repeats but may differ in a detail not shown here. Equal values may be shown once. Read-outs that look alike come from different tables or passages of the source.

Tests used:
[1] = POV reduction in model citrus perfume (mixed citrus oil in 90/10 v/v ethanol/water); details: for Reduction in POV (%): vs untreated; for reduction in POV relative to untreated material: 7 days after addition, 1.0% w/v in model perfume
[2] = POV reduction in autoxidized limonene
Method: The vial was shaken once and allowed to stand for 50 minutes. No further treatment was done prior to the POV testing. […] POV before treatment was 65.97 mEq./L, and POV after treatment was 17.21 mEq./L. […] The vial was shaken once and allowed to stand, while being monitored for POV value as a function of time. […] The vial was shaken once and allowed to stand, while being monitored for POV value as a function of time.

[3] = POV reduction in sunflower oil; details: for POV of treated oil / % Reduction in POV: 0.3358 g in 15 mL sunflower oil
[4] = HPLC chemiluminescence peak area of oxidized limonene; details: oxidized limonene 100 μL + 2 mg HDPA
Method: Preparation of the Treated Sample: Oxidized limonene (100 μL, with a starting POV of approximately 38 mmol/L) was treated with 2 mg of HDPA (approximately 2 eq of HP). The treated & un-treated limonene samples were allowed to stand on the benchtop under ambient laboratory light at room temperature, and HPLC Chemiluminescence measurements were taken periodically. The same quantity of untreated limonene was prepared in a 2nd vial and monitored similarly to the treated one for comparison.

[5] = Solubility / miscibility observed on addition to the treated material
[6] = 3 min since addition, 250 μL in 20 mL autoxidized limonene
[7] = 20 min since addition, 250 μL in 20 mL autoxidized limonene
[8] = 35 min since addition, 250 μL in 20 mL autoxidized limonene
[9] = 44 min since addition, 250 μL in 20 mL autoxidized limonene
[10] = 66 min since addition, 250 μL in 20 mL autoxidized limonene
[11] = model citrus perfume, DMESi 0.3247 g, 0 d since addition
[12] = model citrus perfume, DMESi 0.3247 g, 0.08 d since addition
[13] = model citrus perfume, DMESi 0.3247 g, 1.29 d since addition
[14] = model citrus perfume, DMESi 0.3247 g, 5 d since addition
[15] = model citrus perfume, DMESi 0.3247 g, 14 d since addition
[16] = 1 day, approximately 150 mg (1.0% w/v) in 15 mL model perfume (Examples 14, 20, 21)
[17] = 2 days, 1.0% w/v in 15 mL model perfume (Examples 14, 20, 21)
[18] = 4 days, 1.0% w/v in 15 mL model perfume (Examples 14, 20, 21)
[19] = 7 days, 1.0% w/v in 15 mL model perfume (Examples 14, 20, 21)
[20] = 40 min since addition, 200 mg in 20 mL autoxidized limonene
[21] = 150 min since addition, 200 mg in 20 mL autoxidized limonene
[22] = 190 min since addition, 200 mg in 20 mL autoxidized limonene
[23] = 2880 min (48 hrs) since addition, 200 mg in 20 mL autoxidized limonene

For “2-Phospho-L-ascorbic acid trisodium salt [Vc-PTNa]”, the “POV (mmol/L) of treated” value ([1]; trisodium salt) was 12.4 mmol/L and 11.7 mmol/L and 11.57 mmol/L and 10.15 mmol/L and 8.7 mmol/L and 9.22 mmol/L and 9.49 mmol/L.
In the case of CCC(=O)C(=O)O [2-oxobutyric acid], the POV [2, 6] is reported as 43.680 mEq/L, the POV reduction [2, 6] is reported as 34.1% and the POV [2, 7] is reported as 22.140 mEq/L. The POV reduction [2, 7] was 66.6%, the POV [2, 8] was 22.681 mEq/L and the POV reduction [2, 8] was 65.8%. It also gave a POV [2, 9] of 19.968 mEq/L, a POV reduction [2, 9] of 69.9% and a POV [2, 10] of 21.406 mEq/L. For the same compound, the POV reduction [2, 10] was 67.7%, the “measured POV” value ([2]; additional 500 μL added (after 250 μL), additional 24 hours, 20 mL autoxidized limonene) was 8.577 mEq./L and the total reduction ([2]; additional 500 μL added, additional 24 hours) was 87.1%.
Work on CCCC(=O)C(=O)O [2-oxovaleric acid] yielded a POV ([3]; 30 minutes since addition, 250 μL in 25 mL sunflower oil) of 7.38 mmol/L, a POV reduction ([3]; 30 minutes, 250 μL in 25 mL sunflower oil, vs most recent untreated POV) of 16.2% and a POV ([3]; 50 minutes since addition, 250 μL in 25 mL sunflower oil) of 7.84 mmol/L. For the same compound, the POV reduction ([3]; 50 minutes, 250 μL in 25 mL sunflower oil, vs most recent untreated POV) was 11.0%, the “POV, averaged value (in parentheses)” value ([3]; 23 hours since addition, 250 μL in 25 mL sunflower oil) was 4.81 mmol/L and the POV ([3]; 23 hours since addition, 250 μL in 25 mL sunflower oil, single measurements) was 4.95 mmol/L and 4.67 mmol/L. The POV reduction ([3]; 23 hours, 250 μL in 25 mL sunflower oil, vs most recent untreated POV) was 45.4%, the “POV, averaged value (in parentheses)” value ([3]; 46 hours since addition, 250 μL in 25 mL sunflower oil) was 5.22 mmol/L and the POV ([3]; 46 hours since addition, 250 μL in 25 mL sunflower oil, single measurements) was 5.34 mmol/L and 5.10 mmol/L. The POV reduction ([3]; 46 hours, 250 μL in 25 mL sunflower oil, vs most recent untreated POV) was 53.0%, the “POV, averaged value (in parentheses)” value ([3]; 15 days since addition, 250 μL in 25 mL sunflower oil) was 2.10 mmol/L and the POV ([3]; 15 days since addition, 250 μL in 25 mL sunflower oil, single measurements) was 2.27 mmol/L and 2.05 mmol/L and 1.99 mmol/L. For the same compound, the POV reduction ([3]; 15 days, 250 μL in 25 mL sunflower oil (0.83% v/v), vs untreated oil) was 82.9%, the “reduction in POV” value ([2]; 100 μL in 10 mL autoxidized limonene, 50 minutes, vs 65.97 mEq./L before) was “approximately 74%” and the POV after Treatment ([2]; 100 μL in 10 mL autoxidized limonene, stood 50 minutes) was 17.21 mEq./L.
In the case of CN(C)CCO.CN(C)CCO.O=C(O)CCC(=O)C(=O)O [AKG DiDeanol], the “POV of Treated Perfume” value ([1]; 60 min, approximately 200 mg (1.0% w/v) in 20 mL model perfume (Example 9)) is reported as 5.95 mmol/L, the “POV of Treated Perfume” value ([1]; 75 min, 1.0% w/v in 20 mL model perfume (Example 9)) is reported as 5.66 mmol/L and the “POV of Treated Perfume” value ([1]; 115 min, 1.0% w/v in 20 mL model perfume (Example 9)) is reported as 4.96 mmol/L. The “POV of Treated Perfume” value ([1]; 195 min, 1.0% w/v in 20 mL model perfume (Example 9)) was 3.20 mmol/L, the “POV of Treated Perfume” value ([1]; 210 min, 1.0% w/v in 20 mL model perfume (Example 9)) was 3.08 mmol/L and the “POV of Treated Perfume” value ([1]; 300 min (5 hours), 1.0% w/v in 20 mL model perfume (Example 9)) was 2.31 mmol/L. For the same compound, the “POV of Treated Perfume” value ([1]; 370 min, 1.0% w/v in 20 mL model perfume (Example 9)) was 1.73 mmol/L, the “POV of Treated Perfume” value ([1]; 380 min, 1.0% w/v in 20 mL model perfume (Example 9)) was 1.72 mmol/L and the “POV of Treated Perfume” value ([1]; […] (24 hours), 1.0% w/v in 20 mL model perfume (Example 9), indistinguishable from blank) was 0.0 mmol/L.
For CC[SiH](C)C [DMESi, Dimethylethylsilane], the “POV (mmol/L) of treated” value [1, 11] was 13.2 mmol/L, the “Reduction in POV (%)” value [1, 11] was 0.00% and the “POV (mmol/L) of treated” value [1, 12] was 9.29 mmol/L. For the same compound, the “Reduction in POV (%)” value [1, 12] was 29.62%, the “POV (mmol/L) of treated” value [1, 13] was 9.32 mmol/L and the “Reduction in POV (%)” value [1, 13] was 33.43%. For the same compound, the “POV (mmol/L) of treated” value [1, 14] was 10.53 mmol/L, the “Reduction in POV (%)” value [1, 14] was 30.03% and the “POV (mmol/L) of treated” value [1, 15] was 13.65 mmol/L. For the same compound, the “Reduction in POV (%)” value [1, 15] was 24.38%.
In the case of CCCCCCCCCCN(C)C.O=C(O)C(=O)c1ccco1 [FAA-DiMeC10A], the “POV of treated oil” value ([3]; 85 minutes since addition) is reported as 5.16 mmol/L, the “% Reduction in POV” value ([3]; 85 minutes) is reported as 68.8% and the “% Reduction in POV” value ([3]; 140 minutes) is reported as 82.1%. For the same compound, the “POV of treated oil” value ([3]; 140 minutes) was 2.97 mmol/L, the “% Reduction in POV” value ([3]; 1320 mins (22 hrs)) was 97.4% and the “POV of treated oil” value ([3]; 1320 mins (22 hrs)) was 0.43 mmol/L. For the same compound, the “% Reduction in POV” value ([3]; 23 days) was 100%, the “POV of treated oil” value ([3]; 23 days, indistinguishable from BLANK) was 0.00 mmol/L and the “POV of Treated Perfume” value [1, 16] was 5.06 mmol/L. The “POV of Treated Perfume” value [1, 17] was 4.89 mmol/L, the “POV of Treated Perfume” value [1, 18] was 4.68 mmol/L and the “reduction in POV relative to untreated material” value [1] was 40.0%. The “POV of Treated Perfume” value [1, 19] was 4.28 mmol/L.
With O=CC(=O)O [Glyoxylic Acid] the “POV after Treatment” value ([1]; model citrus perfume, 3 days after addition of treating compound) was 3.00 mmol/L, the “% POV Reduction” value ([1]; model citrus perfume, 3 days after addition of treating compound, vs untreated sample) was 54.6% and the “POV after Treatment” value ([1]; model citrus perfume, 10 days after addition of treating compound) was 1.61 mmol/L. The “% POV Reduction” value ([1]; model citrus perfume, 10 days after addition of treating compound, vs untreated sample) was 80.8%.
With CC1=C(C(=O)N(C)C)CC(C(=O)N(C)C)=C(C)N1 [HDPA, N(3),N(3),N(5),N(5),2,6-Hexamethyl-1,4-Dihydro-3,5-Pyridinedicarboxamide] the “Peak Area Treated” value ([4]; treatment time 1 day) was 12723, the “Peak Area Treated” value ([4]; treatment time 6 days) was 12128 and the “Peak Area Treated” value ([4]; treatment time 13 days) was 10978. For the same compound, the “Peak Area Treated” value ([4]; treatment time 20 days) was 17089.
For CCOC(=O)[C@@H](N)CS.Cl [L-Cysteine ethyl ester hydrochloride], the “% POV Reduction” value ([1]; approximately 0.15 g in 15 mL model perfume, 89 minutes after addition) was 100% and the “POV after Treatment” value ([1]; approximately 0.15 g in 15 mL model perfume, 89 minutes after addition, untreated 5.55 mmol/L) was 0.00 mmol/L.
For COC(=O)[C@H](CS)NC(C)=O [N-acetylcysteine methyl ester], the “% POV Reduction” value [1] was 100% and the “POV after Treatment” value [1] was 0.00 mmol/L.
In the case of C[SiH](C)O[Si](C)(C)C [PMDSi, Pentamethyldisiloxane], the “solubility / miscibility in model citrus perfume (in words)” value ([5]; on addition to hydroalcoholic model citrus perfume) is reported as “miscible with the perfume”.
With O=C(O)C(=O)c1ccccc1.O=C1NCCN1CCO [PhGA-HEI] the “POV of Treated Perfume” value [1, 16] was 3.51 mmol/L, the “POV of Treated Perfume” value [1, 17] was 3.18 mmol/L and the “POV of Treated Perfume” value [1, 18] was 3.06 mmol/L. The “reduction in POV relative to untreated material” value [1] was 58.8% and the “POV of Treated Perfume” value [1, 19] was 2.94 mmol/L.
In the case of N[C@@H](CCC(=O)N[C@@H](CS)C(=O)NCC(=O)O)C(=O)O [glutathione], the “% POV Reduction” value ([1]; approximately 0.15 g in 15 mL model perfume, 3 days after addition) is reported as 100% and the “POV after Treatment” value ([1]; approximately 0.15 g in 15 mL model perfume, 3 days after addition, untreated 5.55 mmol/L) is reported as 0.00 mmol/L.
For O=C(O)C(=O)c1ccccc1 [phenylglyoxylic acid], the POV [2, 20] was 37.035 mEq/L, the POV reduction [2, 20] was 17.3% and the POV [2, 21] was 34.086 mEq/L. It also gave a POV reduction [2, 21] of 23.9%, a POV [2, 22] of 29.963 mEq/L and a POV reduction [2, 22] of 33.1%. For the same compound, the POV [2, 23] was 17.265 mEq/L, the POV reduction [2, 23] was 61.5% and the “solubility in autoxidized limonene (in words)” value ([5]; 200 mg in 20 mL) was “dissolved”.
For O=C(O)C(=O)c1ccco1 [α-Oxo-2-furanacetic acid, α-oxo-2-furanacetic acid], the “solubility in mixed citrus oil (in words)” value ([5]; on addition to mixed citrus oil) was “The majority of the added α-oxo-2-furanacetic acid did not dissolve”.
For “L-Ascorbic acid 2-phosphate sesqui-magnesium salt hydrate [Vc-PSeMg]”, the “POV (mmol/L) of treated” value ([1]; hydrate) was 12.4 mmol/L and 12.32 mmol/L and 12.66 mmol/L and 12.28 mmol/L and 13.26 mmol/L and 15.25 mmol/L and 20.2 mmol/L.
